Measured values published in PMC4291348, “A Continuous Enzyme-Coupled Assay for Triphosphohydrolase Activity of HIV-1 Restriction Factor SAMHD1” (Antimicrobial Agents and Chemotherapy, 2014).
Values joined by “and” are separate entries in the source; they are usually repeats but may differ in a detail not shown here. Identical values can stand only once. “Also recorded” adds a separate entry of the source. One block for each molecule: values may come before it.

Key:
[1] = biological target: T1, SAMHD1 (residues 115 to 626) (Homo sapiens, UniProt Q9Y3Z3); experiment: Continuous enzyme-coupled (Ppx1 / MDCC-PBP) real-time assay of SAMHD1 triphosphohydrolase activity; type: biochemical; settings: for Inhibitory effect on steady-state TTP hydrolysis by GTP-activated SAMHD1 (in words): increasing amounts of compound; for KA, apparent dissociation constant for activator binding (activator concentration for half-maximal hydrolysis of TTP substrate): TTP substrate 1 mM, activator varied
T1 construct: The catalytic domain of SAMHD1 (residues 115 to 626) was expressed and purified as previously described; made in house
T1 sequence (Q9Y3Z3 115-626): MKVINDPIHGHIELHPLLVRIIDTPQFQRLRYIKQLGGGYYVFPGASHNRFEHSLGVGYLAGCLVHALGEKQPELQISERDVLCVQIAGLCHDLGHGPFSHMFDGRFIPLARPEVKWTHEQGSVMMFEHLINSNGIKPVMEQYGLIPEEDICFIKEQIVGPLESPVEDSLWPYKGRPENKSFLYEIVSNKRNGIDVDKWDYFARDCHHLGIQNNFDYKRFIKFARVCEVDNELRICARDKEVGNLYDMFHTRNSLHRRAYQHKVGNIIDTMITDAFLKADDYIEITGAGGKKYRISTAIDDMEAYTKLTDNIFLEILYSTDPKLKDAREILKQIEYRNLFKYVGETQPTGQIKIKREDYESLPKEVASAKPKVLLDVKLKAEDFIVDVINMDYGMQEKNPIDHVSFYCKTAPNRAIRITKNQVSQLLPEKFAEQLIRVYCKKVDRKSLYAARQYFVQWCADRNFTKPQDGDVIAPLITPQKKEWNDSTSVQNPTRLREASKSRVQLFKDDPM
Protocol: The steady-state kinetics of SAMHD1 were determined by a coupled-enzyme assay using Ppx1 and a fluorescent phosphate biosensor, MDCC-PBP. The reactions were set up in 20-μl volumes in 384-well low-protein-binding microplates (Corning, USA), and the time-dependent fluorescence signal was measured using a Tecan Saffire^2 multiwell plate reader (Männedorf, Switzerland). Solutions containing SAMHD1 (residues 115 to 626), Ppx1, MDCC-PBP, an activator, and an inhibitor (if present) were incubated for 5 min at 25°C before the reaction was initiated by the addition of the substrate. The final concentrations were 100 nM SAMHD1, 10 nM Ppx1, and 40 μM MDCC-PBP. Depending on the experiment, the concentration of the substrate, the activator, or the inhibitor varied while the substrate and/or the activator was held constant at 1 mM and 0.2 mM, respectively. The fluorescence intensity was recorded at 430 nm for excitation and 465 nm for emission wavelengths, with a 7-nm slit width, at 8- to 10-s time intervals over a period of 10 to 30 min. The standard curves were obtained by incubating 40 μM MDCC-PBP with different concentrations of phosphate (Pi) and measuring the fluorescence, as discussed above. The fluorescence response was linear and in the range of 0 to 20 μM Pi.
The steady-state rates were obtained from the time courses of Pi formation by linear regression of the data points in the linear phase of the reaction. Rates were divided by the SAMHD1 concentration and were plotted versus the activator, substrate, or inhibitor concentration. Apparent dissociation constants for the activator (KA) or the substrate binding (KS) and the catalytic constant (kcat) were determined by nonlinear least-squares fitting using either a hyperbolic or a Hill-function equation in the software package GraFit 7.0.3 (Erithacus Software, United Kingdom) ([22]). […] Data from the three different experiments were analyzed by a least-squares fit using the equation for competitive inhibition. The fits for the three data sets yielded invariant values for the inhibition constants (Ki), supporting a competitive mode of inhibition. All measurements were performed in triplicate in the reaction buffer.

[2] = test system: T2, SAMHD1; experiment: Malachite green endpoint Ppx1-coupled assay of SAMHD1 (compound screening); type: biochemical, human; settings: for SAMHD1 activation (TTP hydrolysis relative to control GTP): 200 μM compound as activator, 1 mM TTP substrate; for SAMHD1 inhibition (TTP hydrolysis after inclusion of test compound): 200 μM compound, 200 μM GTP, 1 mM TTP; for Hydrolysis by GTP-activated SAMHD1: 1 mM compound plus 200 μM GTP, relative to control TTP
T2 construct: The catalytic domain of SAMHD1 (residues 115 to 626) was expressed and purified as previously described; made in house
Protocol: The substrates and compounds were obtained from Jena Biosciences (Jena, Germany) or Thermo Fisher Scientific (Massachusetts, USA). The phosphate concentration was determined using the recommended protocol supplied with the PiColorLock gold phosphate detection system from Innova Biosciences (Cambridge, United Kingdom). Time-course assays were conducted in low-protein-binding 96-well black plates (Corning, USA). The absorbance was measured using a Tecan Safire^2 (Männedorf, Switzerland) plate reader at 630 nm in a fixed-wavelength mode. All the assays were prepared as master mixes immediately before use in a reaction buffer containing 20 mM Tris-HCl, 150 mM NaCl, 5 mM MgCl2, and 2 mM TCEP at pH 7.5.
To determine the triphosphohydrolase activity of SAMHD1, 1 mM substrate and 200 μM allosteric activator were incubated with 5 μM SAMHD1 and 500 nM Ppx1. Fixed-volume samples were removed at predetermined time intervals, and activity was stopped by the addition of 0.25 vol of gold mix (PiColorLock gold) through acidification to a pH of approximately 1.0. After 5 min of incubation at 25°C, 0.1 volume of stabilizer solution (PiColorLock gold) was added, and the mixtures were incubated for a further 30 min at 25°C. The final absorbance was measured as 630 nm by scanning 10 times and averaging data. Each assay was completed in triplicate. The triplicated readings were averaged and normalized by subtracting the average zero-standard optical density. The averaged optical density reading was then compared to a known standard of monophosphate to calculate the concentration of phosphate released.
To determine whether a compound was both a substrate and an allosteric activator of SAMHD1, only 1 mM of the compound of interest was included in the reaction. To test if a compound was a substrate for activated SAMHD1, 1 mM of the compound plus 200 μM GTP was included.

[3] = test system: HIV-1; parameters: method as in PMID 24867973, PMID 23744077, PMID 24913159; settings: monocyte-derived macrophages and activated CD4+ T cells; cited from earlier work
[4] = test system: T2, SAMHD1; settings: cited from earlier work; for Hydrolytic activity of SAMHD1 on the compound: in vitro
[5] = biological target: T3, Ppx1 (Saccharomyces cerevisiae, UniProt P38698); experiment: Ppx1 triphosphate hydrolysis kinetics and specificity controls; type: biochemical; settings: recombinant Ppx1 0.3 nM, 25°C, MDCC-PBP
T3 construct: StrepII-tag (N); made in house; host or cells: Escherichia coli BL21(DE3)
T3 sequence (P38698 whole entry): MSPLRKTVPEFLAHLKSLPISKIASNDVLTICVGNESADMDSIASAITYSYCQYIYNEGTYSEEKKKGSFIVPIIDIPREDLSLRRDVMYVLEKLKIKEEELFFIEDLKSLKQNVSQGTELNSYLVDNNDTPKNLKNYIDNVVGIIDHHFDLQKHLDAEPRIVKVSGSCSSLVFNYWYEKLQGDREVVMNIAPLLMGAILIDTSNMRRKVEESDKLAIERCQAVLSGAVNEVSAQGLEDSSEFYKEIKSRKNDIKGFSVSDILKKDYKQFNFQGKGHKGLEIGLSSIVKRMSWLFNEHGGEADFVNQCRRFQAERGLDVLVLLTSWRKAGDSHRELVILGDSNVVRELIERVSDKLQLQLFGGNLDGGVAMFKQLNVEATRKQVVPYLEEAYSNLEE
Protocol: Sample controls were used to check for potential Ppx1 activity on the compounds and the reagents. In these assays, the 200 μM compound was incubated in a reaction buffer at 25°C for 30 s with 500 nM Ppx1, either with or without 200 μM triphosphate. The Ppx1 activity was determined by measuring phosphate release with malachite green detection, as described for the coupled assay above.
The initial control experiments were undertaken to assess the suitability of Ppx1 as a coupled enzyme for the assay. The Km for Ppx1 hydrolysis of a polyphosphate ranged from 0.004 to 140 μM ([23]) for P250 to P3 substrates, with kcat values between 180 and 1,500 s^−1 at 37°C, depending on the preparation ([23][–][25]). […] Over the triphosphate substrate concentration range employed in the assays, this rate is substantially higher than that of SAMHD1 dNTP hydrolysis (kcat, ∼1.3 s^−1) and so is suitable as the coupling enzyme in an assay. […]
FIG 2 Kinetics and specificity of Ppx1 hydrolysis. (A) Steady-state kinetics of Ppx1-catalyzed triphosphate cleavage to Pi and PPi were measured using 40 μM MDCC-PBP, 0.3 nM Ppx1, and various concentrations of the triphosphate. The error bars represent the SEM of three independent measurements recorded at each substrate concentration. […] (B) Specificity of Ppx1 hydrolysis was measured using the malachite green endpoint assay. […]

- Ki ([1]; read-out: Ki, inhibition constant): 1130 ± 70 nM
SMILES: Nc1ncnc2c1ncn2[C@H]1C[C@H](O)[C@@H](COP(=O)(O)NP(=O)(O)OP(=O)(O)O)O1 [dApNHpp]
- Inhibitory effect on steady-state TTP hydrolysis by GTP-activated SAMHD1 (in words) ([1]; GTP activator, TTP substrate): potent inhibition; also recorded: strong competitive inhibitor
- SAMHD1 activation (TTP hydrolysis relative to control GTP) [2]: no activation
- SAMHD1 inhibition (TTP hydrolysis after inclusion of test compound) [2]: substantial reduction in TTP hydrolysis to near background levels
- Hydrolysis by GTP-activated SAMHD1 [2]: refractory to hydrolysis

- kcat of Ppx1 triphosphate hydrolysis [5]: 338 s⁻¹ and 338 ± 31 s⁻¹
SMILES: O=P(O)(O)OP(=O)(O)OP(=O)(O)O [triphosphate]

- Ki, inhibition constant ([1]; GTP activator, TTP substrate (1, 0.3, 0.1 mM), competitive inhibition model): No inhibition
- KA, apparent dissociation constant for activator binding (activator concentration for half-maximal hydrolysis of TTP substrate) ([1]; 25°C): No activation
- KA, apparent dissociation constant for activator binding (activator concentration for half-maximal hydrolysis of TTP substrate) ([1]; 25°C, listed as ganciclovir-TP): unable to activate SAMHD1
- Inhibitory effect on steady-state TTP hydrolysis by GTP-activated SAMHD1 (in words) ([1]; GTP activator, TTP substrate): no effect
SMILES: Nc1nc2c(ncn2COC(CO)COP(=O)(O)OP(=O)(O)OP(=O)(O)O)c(=O)[nH]1 (stereo not drawn) [Ganciclovir-TP, ganciclovir triphosphate]
- SAMHD1 activation (TTP hydrolysis relative to control GTP) [2]: no activation
- SAMHD1 inhibition (TTP hydrolysis after inclusion of test compound) [2]: not significantly inhibited
- Hydrolysis by GTP-activated SAMHD1 [2]: refractory to hydrolysis

- nS, Hill coefficient for substrate binding ([1]; Acyclovir-TP as activator, TTP substrate): 3.0 ± 0.1
- KS, apparent dissociation constant for substrate binding ([1]; Acyclovir-TP as activator, TTP substrate, Hill-modified model): 353 ± 16 µM
- KS, apparent dissociation constant for substrate binding ([1]; GTP activator 0.2 mM, 25°C): 96.3 ± 1.7 µM
SMILES: Cc1cn([C@H]2C[C@H](O)[C@@H](COP(=O)(O)OP(=O)(O)OP(=O)(O)O)O2)c(=O)[nH]c1=O [TTP]

The next lines start with the molecule.

SMILES: Nc1nc(Cl)nc2c1ncn2[C@@H]1O[C@H](COP(=O)(O)OP(=O)(O)OP(=O)(O)O)[C@@H](O)[C@@H]1F [Clofarabine-TP, clofarabine triphosphate]
- nS, Hill coefficient for substrate binding ([1]; GTP activator 0.2 mM): 2.8 ± 0.1
- KS, apparent dissociation constant for substrate binding ([1]; GTP activator 0.2 mM, 25°C): 67.6 ± 8.9 µM
- SAMHD1 activation (TTP hydrolysis relative to control GTP) [2]: no activation
- SAMHD1 inhibition (TTP hydrolysis after inclusion of test compound) [2]: diminished only slightly
- Hydrolysis by GTP-activated SAMHD1 [2]: hydrolyzed at a rate comparable to that of the control TTP; also recorded: hydrolyzed by SAMHD1 at a rate comparable to that of natural dNTP substrates

SMILES: Cc1cn([C@H]2C[C@H](N=[N+]=[N-])[C@@H](CO)O2)c(=O)[nH]c1=O [AZT]
- Change in efficacy against HIV-1 infection on downregulation of SAMHD1 [3]: large decrease in the efficacy

SMILES: Nc1ccn([C@H]2CS[C@@H](COP(=O)(O)OP(=O)(O)OP(=O)(O)O)O2)c(=O)n1 [3TC-TP, 2′,3′-dideoxy-3′-thiacytidine triphosphate]
- Hydrolytic activity of SAMHD1 on the compound [4]: little or no hydrolytic activity

SMILES: Cc1cn([C@H]2C=C[C@@H](COP(=O)(O)OP(=O)(O)OP(=O)(O)O)O2)c(=O)[nH]c1=O [d4T-TP, 2′,3′-didehydro-2′,3′-dideoxythymidine triphosphate]
- Hydrolytic activity of SAMHD1 on the compound [4]: little or no hydrolytic activity

SMILES: Cc1cn([C@H]2C[C@H](N=[N+]=[N-])[C@@H](CO[P@](=O)(O)O[P@](=O)(O)OP(=O)(O)O)O2)c(=O)[nH]c1=O [AZT-TP, azidothymidine triphosphate]
- Hydrolytic activity of SAMHD1 on the compound [4]: little or no hydrolytic activity

SMILES: Nc1nc2c(ncn2[C@@H]2O[C@H](COP(=O)(O)OP(=O)(O)OP(=O)(O)O)[C@@H](O)[C@H]2O)c(=O)[nH]1 [GTP]
- KA, apparent dissociation constant for activator binding (activator concentration for half-maximal hydrolysis of TTP substrate) ([1]; 25°C): 32.0 ± 4.2 µM
- Activation of SAMHD1 [4]: activates SAMHD1 as effectively as dGTP

SMILES: Nc1nc2c(ncn2COCCOP(=O)(O)OP(=O)(O)OP(=O)(O)O)c(=O)[nH]1 [Acyclovir-TP, acyclovir triphosphate]
- EC50 [1]: 15.6 ± 2.2 µM
- SAMHD1 inhibition (TTP hydrolysis after inclusion of test compound) [2]: not significantly inhibited
- Hydrolysis by GTP-activated SAMHD1 [2]: refractory to hydrolysis; also recorded: not a substrate
